According to patent US20250188123A1, “PROTEASE INHIBITORS” (Regents of the University of Minnesota, priority 2022, published 2025):

Legend:
[1] = tested on: primary hippocampal neurons overexpressing P301S tau (Tau−/+) and littermate controls (Tau−/−); assay: mEPSC recording in primary hippocampal neurons from PS19 transgenic mice expressing P301S tau; format: cell-based, mouse; details: 10 μM; for average amplitude of mEPSC responses in Tau−/+ versus Tau−/− neurons: 3 days in culture media; for cumulative curve of mEPSC amplitudes, Tau−/+ compared with Tau−/−: Mann-Whitney U test
Procedure: For these studies, PS19 transgenic mice expressing P301S mutant tau, one of the most used models of FTDP-17 were used (Feinstein S. Faculty Opinions recommendation of Synapse loss and microglial activation precede tangles in a P301S tauopathy mouse model. Faculty Opinions—Post-Publication Peer Review of the Biomedical Literature. 2007; and Takeuchi H, et al., PLoS One., 2011, 6, e21050). To detect functional deficits, primary hippocampal neurons were cultured from heterozygous transgenic mice overexpressing P301S tau (Feinstein S. Faculty Opinions recommendation of Synapse loss and microglial activation precede tangles in a P301S tauopathy mouse model. Faculty Opinions—Post-Publication Peer Review of the Biomedical Literature. 2007; and Takeuchi H, et al., PLoS One., 2011, 6, e21050) and littermate controls, (denoted Tau−/+ and Tau−/− respectively in FIG. 3), and recorded miniature excitatory synaptic currents (mEPSCs).
Briefly, a 22 mm diameter glass coverslip (0.09 mm thickness) was silicone-sealant-fastened to the bottom of a 35 mm culture dish with a bored hole of 20 mm in diameter and sterilized as described by Smith B R, et al., Acta Neuropathologica Communications, 2019, 7(1), 124. Coverslips were coated with poly-D-lysine. Hippocampi were dissected from neonatal Sprague-Dawley timed-pregnancy rats (Envigo) or appropriate transgenic mice and control littermates (see main text) at post-natal day 0-1. Hippocampi were enzymatically digested in Earle's Balanced Salt Solution (EBSS) supplemented with 1% glucose and cysteine-activated papain. Digestion was blocked with dilute BSA (bovine serum albumin) and chicken ovomucoid, and cells were rinsed in fresh EBSS and plated in plating medium (minimal essential medium with Earle's salts, 10% fetal bovine serum, 5% horse serum, 2 mM glutamine, 10 mM sodium pyruvate, 0.6% glucose, 100 U/ml penicillin and […] streptomycin) at 1.0×10^6 cells/dish. After 18 h cell adherence was established. Cells were then grown in a neurobasal medium (a 1:5 mixture of NbActiv4 to NbActiv1; BrainBits LLC) and incubated at 37° C. in a 5% CO2 biological incubator.
Miniature excitatory postsynaptic currents (mEPSCs) were recorded from cultured dissociated mouse hippocampal neurons at 17-21 DIV with a glass pipette (resistance ˜5 MΩ) at holding potentials of −65 mV on an Axopatch 200B amplifier (output gain=0.5; filtered at 1 kHz) as we previously described (Miller E C, et al., Eur J Neurosci., 2014, 39, 214-224). Input and series resistances were assessed and found to have no significant difference before and after recording time (5-20 mins). Recording sweeps lasted 200 ms and were sampled for every 1 s (pClamp, v10, RRID: SCR_011323). Neurons were bathed in bubble-oxygenated artificial cerebrospinal fluid (ACSF) at 23° C. with 100 μM APV (NMDA receptor antagonist), 1 μM TTX (sodium channel blocker), and 100 μM picrotoxin (GABAa receptor antagonist). Passive oxygen perfusion was established with medical-grade 95% O2-5% CO2. ACSF contained (in mM) 119 NaCl, 2.5 KCl, 5.0 CaCl2), 2.5 MgCl2, 26.2 NaHCO3, 1 NaH2PO4, and 11 D-glucose. The internal solution of the glass pipettes contained (in mM) 100 cesium gluconate, 0.2 EGTA, 0.5 MgCl2, 2 ATP, 0.3 GTP, and 40 HEPES. The pH of the internal solution was normalized to 7.2 with cesium hydroxide and diluted to a trace osmotic deficit in comparison to ACSF (˜300 mOsm). All analysis of recordings was performed using an automated detection software suit (Clampfit, 11.0.3, Molecular Devices, San Jose, CA, USA). Minimum analysis parameters were set at greater than 1 min stable recording time and events with amplitudes greater than 3 pA and smaller than 40 pA were included. A mEPSC event was identified by using a template which included a distinct fast-rising depolarization and slow-decaying repolarization. […]

[2] = tested on: cultured rat hippocampal neurons expressing GFP-tagged P301S tau; assay: Accumulation of P301S tau in dendritic spines of cultured hippocampal neurons; format: cell-based; details: 10 μM for 3 days
Excerpt: The disproportionate accumulation in dendritic spines of mutant tau linked to FTDP-17 depends upon tau-truncation by Casp2 (Zhao X, et al., Nat Med., 2016, 22, 1268-76). […] The P301S tau mutation linked to FTDP-17 (Bugiani O, et al., J Neuropathol Exp Neurol., 1999, 58, 667-677; and Lossos A, et al., J Neurol., 2003, 250, 733-740) was examined to determine whether Compound 1 could prevent the accumulation of tau in dendritic spines. Dissociated hippocampal neurons from postnatal day 0-1 rat pups were cultured. After 5-7 days in vitro (DIV), the neurons were co-transfected with plasmids encoding DsRed (to label neuronal morphology) and GFP-tagged wild-type or P301S mutant tau proteins (FIG. 2A), as previously described (Hoover B R, et al., Neuron., 2010, 68:1067-1081). Neurons at 17-18 DIV were incubated with 10 μM Compound 1 for 3 days and live neurons were imaged at 20-21 DIV.
For all cultured hippocampal neuron studies all human tau and DsRed constructs were expressed in the pRK5 vector and driven by the cytomegalovirus promoter (Clontech Inc.). Human tau proteins were N-terminally fused to enhance GFP (eGFP). The wild-type, native human tau construct encoded human four-repeat tau lacking the transcriptional-variant N-terminal sequences (0N4R) and contained exons 1, 4, 5, 7, 9-13, 14, and intron 13 (RRID: Addgene_46904). […]

cathepsin B = cathepsin B (Homo sapiens, UniProt P07858); assay: Activity at cathepsin B proteolytic enzyme; format: biochemical

SMILES	average amplitude of mEPSC responses in Tau−/+ versus Tau−/− neurons [1]	cumulative curve of mEPSC amplitudes, Tau−/+ compared with Tau−/− ([1]; 3 days)	density of dendritic spines ([2]; compared with untreated wild-type and P301S tau groups)	percentage of dendritic spines containing GFP-tagged tau ([2]; neurons expressing P301S tau, untreated P301S 75.5%, wild-type tau 21.9%) [%]	activity at cathepsin B (cathepsin B)	average amplitudes of mEPSC responses of Tau−/+ neurons versus those treated with Compound 30a or 30b ([1]; 3 days)
CC(=O)N[C@H](C(=O)NC(CC(=O)O)C(=O)N[C@H](C(=O)N1CCc2cc(C)ccc2C1C(=O)N[C@H](C=O)CC(=O)O)C(C)C)C(C)C (stereo in doubt) [Compound 30a, (R)-3-((S)-2-acetamido-3-methylbutanamido)-4-(((S)-1-((S)-1-(((S)-1-carboxy-3-oxopropan-2-yl)carbamoyl)-6-methyl-3,4-dihydroisoquinolin-2(1H)-yl)-3-methyl-1-oxobutan-2-yl)amino)-4-oxobutanoic acid, reference compound]	significantly smaller	shifted to the left				
Cc1ccc2c(c1)CCN(C(=O)[C@@H](NC(=O)[C@H](CCCC(=O)O)NC(=O)C1Cc3ccccc3N1)C(C)C)[C@@H]2C(=O)N[C@H](C#N)CC(=O)O (stereo partly drawn) [Compound 1, (8)-6-(((S)-1-((8)-1-(((S)-2-carboxy-1-cyanoethyl)carbamoyl)-6-methyl-3,4-dihydroisoquinolin-2(1H)-yl)-3-methyl-1-oxobutan-2-yl)amino)-5-((S)-indoline-2-carboxamido)-6-oxohexanoic acid]	do not differ significantly	not significantly shifted	no significant differences	24.8	weak activity	significantly larger
CC(=O)N[C@H](C(=O)N[C@@H](CC(=O)O)C(=O)N[C@H](C(=O)N1CCc2cc(C)ccc2[C@H]1C(=O)N[C@H](C=O)CC(=O)O)C(C)C)C(C)C [Compound 30b, (S)-3-((S)-2-acetamido-3-methylbutanamido)-4-(((S)-1-((S)-1-(((S)-1-carboxy-3-oxopropan-2-yl)carbamoyl)-6-methyl-3,4-dihydroisoquinolin-2(1H)-yl)-3-methyl-1-oxobutan-2-yl)amino)-4-oxobutanoic acid, reference compound]		shifted to the left but less markedly				
